The record followed here is ChEMBL document CHEMBL3507680, “University of Dundee, Gates Library screen for HepG2 cell viability”.

This series in a line: Human HepG2 cell viability assay in 384 well format. It is filed as toxicity, cell-based. Set-up: dose 125 nL, time 70.5 hour; concentration not given beside the values. The note with it: HepG2 cells, read-out: Inhibition.
Regarding `Cc1ncc(CNC(=O)c2nn(C)c3c2CS(=O)(=O)CC3)s1`, the cytotoxicity at 70.5 h is -5.86%.

Consider `CCc1noc(C2CCCCN2C(=O)c2ccoc2C)n1` (stereo unspecified), for which the cytotoxicity at 70.5 h is 9.18%. The value for `COCCCNC(=O)CCn1nc(C)c2ccccc21` was -2.16%. For `Cc1nc(N2CCCC2)ncc1-c1cc(O)nc(N2CCCC2)n1`, the cytotoxicity at 70.5 h is -11.7%. For the compound `CCN(CC)C(=O)CCn1ncc2c(Cl)cccc21`, the cytotoxicity at 70.5 h was -10.4%. As for `COCc1nc(N(C)C)ncc1C(=O)NC(C)C`, the cytotoxicity at 70.5 h was 12.7%.

For the compound `CCN(CC)C(=O)c1ccn(COc2ccccc2)n1`, the cytotoxicity at 70.5 h is -7.93%.

As for `Cc1ccc2cnn(CCC(=O)Nc3c(C)nn(C)c3C)c2c1`, the cytotoxicity at 70.5 h was -6.3%. The value for `Cc1nn(C)c(C)c1NC(=O)CCn1ncc2c(C)cccc21` was -5.31%. For `CC(C(=O)N1CCc2ccccc2C1)n1cc(Br)cn1` (stereo unspecified), the cytotoxicity at 70.5 h is -13.3%. For `Cc1cccc2c1cnn2CCCNC(=O)CCCC(=O)O`, the cytotoxicity at 70.5 h is -4.18%. The value for `CCS(=O)(=O)Nc1ccn(Cc2cccc(Cl)c2)n1` was -4.96%. The result for `O=C(NC1=NCCCN1c1ccc(Cl)cc1)c1cccc(Cl)c1` reads 9.24%. For the compound `CCOc1ccc(N2CCCN=C2NC(=O)c2ccccc2C)cc1`, the cytotoxicity at 70.5 h was -12.8%. The result for `Cc1cc(C)nc(NC(=O)C(C)Oc2ccc3c(c2)OCO3)n1` (stereo unspecified) reads -11.4%; that for `CSCc1cccc(S(=O)(=O)NCCCO)c1`, -6.9%. With `CSCc1cccc(S(=O)(=O)NCCCN2CCOCC2)c1`, the cytotoxicity at 70.5 h is -6.88%. The value for `CCN1CCN(S(=O)(=O)c2cc(C)c(Cl)cc2Cl)CC1` was 10.1%; that for `CCC(C)c1noc(C2CCN(C(=O)c3cccs3)CC2)n1` (stereo unspecified) was -10.7%; that for `CCn1cc(Br)c(C(=O)NCc2cccnc2)n1` was -7.68%.

On to `CC1CCN(c2ncc3c(n2)CN(c2ccc4c(c2)OCO4)C3=O)CC1`, for which the cytotoxicity at 70.5 h is -6.45%. Take `Cc1nc(C2CCCN2C(=O)CCc2ccc(F)cc2)ncc1C(N)=O` (stereo unspecified): the cytotoxicity at 70.5 h was -10.3%. The result for `Cc1cccc(C)c1NC(=O)c1n[nH]c(-n2cnnc2)n1` reads -13.4%.

Consider `Cc1cc(N(C)C)nc(C2(C)CCCN2C(=O)c2cncnc2C)n1` (stereo unspecified), for which the cytotoxicity at 70.5 h is -10.8%. The value for `CNCC(=O)N1CCCCC1c1nccc(C)n1` (stereo unspecified) was 16.2%; that for `CC(=O)N1CCCC(c2ccc(C(=O)NC3CCCC3)cn2)C1` (stereo unspecified) was -5.66%. For the compound `CC1CCN(C(=O)c2cnc(CC3CCCN(C)C3)cn2)CC1` (stereo unspecified), the cytotoxicity at 70.5 h is -9.3%. The value for `CNc1cc(C2CCCN2Cc2ccc(OCC(=O)O)cc2)ccn1` (stereo unspecified) was -5.44%. The value for `c1cncc(CN2CCCC(c3nnc(-c4cnccn4)o3)C2)c1` (stereo unspecified) was -14%; that for `c1cc(CN2CCCC(c3nnc(-c4cnccn4)o3)C2)ccn1` (stereo unspecified) was -8.48%; that for `c1cc(-c2nnc(C3CCCN(CC4CCCCC4)C3)o2)ccn1` (stereo unspecified) was -5.12%. The value for `CC(=O)N1CCC(c2ccnc(Nc3ccc(C)cn3)n2)C1` (stereo unspecified) was 16%. Take `O=C(Cc1ccccc1)N1CCOC(c2nc(-c3ncccn3)no2)C1` (stereo unspecified): the cytotoxicity at 70.5 h was -4.21%. The result for `CCCC(=O)N1CCC(c2nc(O)c3c(n2)CCN(C2CCCC2)C3)C1` (stereo unspecified) reads -0.72%.

As to `CC(=O)NCC(=O)N1CCC(c2cncc(Oc3cccnc3)n2)CC1`, the cytotoxicity at 70.5 h is -9.15%. The result for `Cc1noc(C)c1C(=O)N1CCCC(c2c(C)c(=O)nc3n2CCC3)C1` (stereo unspecified) reads -9.85%; that for `Cc1nc(CCC(=O)NC2CCC2)cc(C2CCCNC2)n1` (stereo unspecified), -9.96%. The result for `CN(C)C(=O)C1CN(Cc2cccs2)CCN(S(C)(=O)=O)C1` (stereo unspecified) reads -5.12%; that for `CN(Cc1ccc(F)cc1)CC1(O)CCN(C(=O)c2ccsc2)C1` (stereo unspecified), 9.08%. On to `Cc1nn(C)cc1C(=O)N1CCCC(n2nnc3cc(F)ccc32)C1` (stereo unspecified), for which the cytotoxicity at 70.5 h was determined as 11.8%.

With `Cc1cc(-c2cnc(NCc3ccccn3)nc2C(C)C)on1`, the cytotoxicity at 70.5 h is -11.7%. Regarding `COc1ccc(CNc2ncc(-c3cc(C)no3)c(C(C)C)n2)cc1`, the cytotoxicity at 70.5 h is -4.08%.

Consider `Cc1nn(C)cc1CN1CCc2c(nc(-c3ccccn3)[nH]c2=O)C1`, for which the cytotoxicity at 70.5 h was -5.77%. The result for `O=C(c1cncs1)N1CCC(c2cnccn2)CC1` reads -8.41%. For `CC(=O)N1CCC(Cc2nccnc2-c2c(C)n[nH]c2C)C1` (stereo unspecified), the cytotoxicity at 70.5 h was -8.33%. The value for `CC(C)N1CCC(c2nccnc2Nc2ncccn2)CC1` was -4.91%; that for `CC(=O)N1CCN(CC(N)=O)CC(COc2ccccc2)C1` (stereo unspecified) was 6.55%; that for `COCC(=O)N1CCCC1c1cccc(Cc2ccccc2F)n1` (stereo unspecified) was -1.54%.

Consider `CS(=O)(=O)N1CCCC(Cc2ccnc3ccncc23)CC1` (stereo unspecified), for which the cytotoxicity at 70.5 h was -0.73%. The result for `CC(C)CC(=O)N1CCN(Cc2cc(-c3ccncc3)nn2C)CC1` reads -3.33%; that for `COCC(=O)N1CCN(Cc2cc(-c3ccncc3)nn2C)CC1`, -3.57%; that for `CCS(=O)(=O)N1CCc2nc(C3CCN(C(=O)C4CC4)C3)nc(O)c2C1` (stereo unspecified), -1.94%.

On to `COc1ccc(-c2cccc(CC3(C(=O)O)CCOCC3)c2)cc1`, for which the cytotoxicity at 70.5 h is -4.34%.

As to `O=C(NCCN1CCOCC1)Nc1cnc2cc(Cl)ccc2c1O`, the cytotoxicity at 70.5 h worked out at 12.7%.

On to `Cc1c(C2CCCN(C(=O)OC(C)(C)C)C2)n2c(nc1=O)CCC2` (stereo unspecified), for which the cytotoxicity at 70.5 h was -5.64%. The value for `O=C(NCCCO)Nc1cnc2cc(Cl)ccc2c1O` was -1.44%. The result for `O=C(C1CC1)N1CCCC(c2nc(O)cc(-c3ccncc3)n2)C1` (stereo unspecified) reads -0.584%. The result for `COc1ccccc1CN1CCC(O)(Cn2ccc3ncccc32)CC1` reads -2.09%; that for `O=c1[nH]c(N2CCOCC2)nc2c1CN(Cc1cccnc1)CC2`, 0.495%; that for `O=C(CC1CCCCC1)NC1CCCc2nc(N3CCOCC3)ncc21` (stereo unspecified), 0.0844%. On to `Cc1ccc(=O)n(CC2(O)CCN(Cc3cnn(C)c3)CC2)n1`, for which the cytotoxicity at 70.5 h was -3.09%. The value for `Cc1ccc(=O)n(CC2(O)CCN(Cc3c(F)cccc3F)CC2)n1` was 0.803%; that for `O=C(NC1CCCc2nc(N3CCOCC3)ncc21)C1CCCC1` (stereo unspecified) was -4.32%. With `O=C(Cc1ccsc1)N1CCCC(c2cc(C(F)F)n3ncnc3n2)C1` (stereo unspecified), the cytotoxicity at 70.5 h is 14.6%.

Consider `O=C(O)C1(Cc2cc(-c3ccccc3F)no2)CCOCC1`, for which the cytotoxicity at 70.5 h is -10.6%.

`CC(C)N1CCC(Cc2cncc(-c3ccccc3C(=O)O)n2)C1` (stereo unspecified): the cytotoxicity at 70.5 h is -4.44%. For `CC(=O)N1CCc2ccccc2C1CC(=O)NCc1nnc(C)o1` (stereo unspecified), the cytotoxicity at 70.5 h came out at 27.7%. The value for `Cc1cc(C(=O)NCCSC2CCCC2)no1` was -1.92%; that for `CCCc1cc(C(=O)N2CCCN(c3cccnn3)CC2)[nH]n1` was -0.666%; that for `CC(C)Cc1cc(C(=O)N2CCCN(c3cccnn3)CC2)[nH]n1` was -5.32%. The result for `CC1CN(C(=O)c2ccc(C(N)=O)cc2)c2ccc(F)cc2O1` (stereo unspecified) reads 2.67%; that for `Cc1nccn1-c1ccc(CNS(=O)(=O)N2CCCCC2C)cn1` (stereo unspecified), -3.35%; that for `CC(C)(NS(C)(=O)=O)C(=O)NCCc1csc2ccccc12`, 4.98%. The result for `COc1cccc(CC(C)NC(=O)NC(C)C)c1` (stereo unspecified) reads -2.35%. For the compound `CCOC(=O)CCNC(=O)c1cccc2ccc(C)nc12`, the cytotoxicity at 70.5 h is 0.845%.

As to `COc1ccc(C2CCCN2c2ccnc(C)c2Cl)c(OC)c1` (stereo unspecified), the cytotoxicity at 70.5 h came out at 33.7%. The value for `COC(=O)c1ccc(NC(=O)NC2CCc3[nH]ncc3C2)cc1` (stereo unspecified) was 1.54%; that for `O=C(Nc1ccc(-c2csnn2)cc1)N1CCCC1` was -11.8%.

On to `COc1cccc(CC(C)NC(=O)NCCNC(C)=O)c1` (stereo unspecified), for which the cytotoxicity at 70.5 h is -1.81%. The result for `CCC1COCCN1C(=O)CNC(=O)c1ccc2c(c1)CCC2` (stereo unspecified) reads 37.1%; that for `Cc1cccc2nc(CN3CCCC(Cn4ccnn4)C3)cc(=O)n12` (stereo unspecified), 2.5%; that for `COc1cccc(CC(=O)NCCc2nnc3n2CCCCC3)c1`, 18.7%. For the compound `CNC(=O)C1CCCCN1C(=O)c1csc(-c2ccc(C)o2)n1` (stereo unspecified), the cytotoxicity at 70.5 h was -6.71%. For `NC(=O)C(NCc1ccc(Cl)s1)c1ccccc1` (stereo unspecified), the cytotoxicity at 70.5 h was -7.49%. Take `CCC(C)NC(=O)CS(=O)(=O)Cc1cc(Cl)ccc1OC` (stereo unspecified): the cytotoxicity at 70.5 h was -12%. Regarding `CCN(Cc1ccco1)C(=O)C1=NN(c2ccccc2)C(=O)CN1`, the cytotoxicity at 70.5 h worked out at 17.6%. The value for `CNC(=O)C1CCCCN1C(=O)Cc1csc(-c2ccc(C)o2)n1` (stereo unspecified) was -11.8%; that for `Cc1noc(C)c1CN(C)C(=O)C1CCN(S(N)(=O)=O)CC1` was -1.71%. The result for `Cc1noc(C)c1CN(C)C(=O)C1CCCCN1S(C)(=O)=O` (stereo unspecified) reads 13.6%; that for `Cc1nc(C2(O)CCCNCC2)sc1CCOc1ccccc1Cl` (stereo unspecified), 1.01%; that for `Cc1nc(C2(O)CCCNCC2)sc1CCOc1ccccc1` (stereo unspecified), -9.24%.

In the case of `Cc1nc(C2(O)CCCNCC2)sc1CCOc1ccc(F)cc1` (stereo unspecified), the cytotoxicity at 70.5 h worked out at 16.3%. The result for `Cc1ccc(Cc2cnc(C3CCNCC3)cn2)cc1` reads -12.9%. The value for `CC(C)CC(=O)NCCn1nc(C2CCNC2)c2cccnc21` (stereo unspecified) was -2.13%; that for `COCCC(=O)NCCn1nc(C2CCNC2)c2cccnc21` (stereo unspecified) was 14.1%; that for `Cc1ccc2c(c1)CN(C(=O)c1ccncc1)C(CN(C)C)CO2` (stereo unspecified) was -0.528%. For `Cc1ccc(CN2CCC(O)(Cn3ccc4ncccc43)CC2)o1`, the cytotoxicity at 70.5 h was -0.742%. Take `OC1(Cn2ccc3ncccc32)CCN(Cc2ccccc2F)CC1`: the cytotoxicity at 70.5 h came out at 2.31%. As to `COc1ccc(C(=O)N2Cc3cc(C)ccc3OCC2CN(C)C)cc1` (stereo unspecified), the cytotoxicity at 70.5 h was determined as 3.28%. In the case of `CCn1cncc1CN(Cc1ccc(OC)cc1OC)CC1CCCO1` (stereo unspecified), the cytotoxicity at 70.5 h is -3.49%. The value for `Cc1cccnc1[C@]1(O)CC[C@H]2CN(Cc3cccc(Cl)c3Cl)C[C@H]21` was -3.29%.
